Experimental data taken from ChEMBL document CHEMBL1201862, “PubChem BioAssay data set” (2004).
Activity calls are given as the source filed them.

Tests used:
[1] = microbe, parasite or virus in culture; type: functional; settings: Mycobacterium tuberculosis
[2] = target: T1, Corticotropin-releasing factor receptor 2/Corticotropin-releasing factor-binding protein (Homo sapiens, UniProt P24387+Q13324); assay: Dose Response confirmation of uHTS hits for small molecule antagonists of the CRF-binding protein and CRF-R2 receptor complex.; type: functional; settings: read-out: IC50_Mean
T1 sequence (Q13324 whole entry): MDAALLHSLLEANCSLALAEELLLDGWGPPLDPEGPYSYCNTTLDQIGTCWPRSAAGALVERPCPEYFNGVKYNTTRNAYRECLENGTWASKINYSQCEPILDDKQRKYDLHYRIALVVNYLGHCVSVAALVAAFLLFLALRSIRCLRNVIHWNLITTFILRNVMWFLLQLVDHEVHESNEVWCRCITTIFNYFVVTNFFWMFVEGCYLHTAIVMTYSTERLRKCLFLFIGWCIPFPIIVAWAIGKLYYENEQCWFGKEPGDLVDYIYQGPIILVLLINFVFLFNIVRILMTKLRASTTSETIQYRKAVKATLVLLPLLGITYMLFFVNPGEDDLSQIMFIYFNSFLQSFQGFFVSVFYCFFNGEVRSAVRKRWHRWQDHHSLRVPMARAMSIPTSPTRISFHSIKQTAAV
T1 sequence (P24387 whole entry): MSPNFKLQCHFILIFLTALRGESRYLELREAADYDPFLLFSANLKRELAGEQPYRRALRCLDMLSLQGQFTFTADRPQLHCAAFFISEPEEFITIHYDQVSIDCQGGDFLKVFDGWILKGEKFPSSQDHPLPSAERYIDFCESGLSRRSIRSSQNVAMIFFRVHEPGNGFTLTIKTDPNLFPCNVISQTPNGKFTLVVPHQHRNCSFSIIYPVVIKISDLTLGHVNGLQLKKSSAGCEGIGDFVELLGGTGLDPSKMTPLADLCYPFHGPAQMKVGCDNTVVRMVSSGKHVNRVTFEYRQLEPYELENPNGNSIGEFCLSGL

[3] = target: T1, Corticotropin-releasing factor receptor 2/Corticotropin-releasing factor-binding protein; assay: activators of CRF receptor 2 with binding protein – uHTS hits, confirmation (AID 602473); type: functional; settings: read-out: EC50_Mean
[4] = viability of uninfected HEp-2 cells – cell-based, HTS, cytotoxicity control for RSV inhibitor project, dose response (AID 2410); type: functional; settings: human respiratory syncytial virus
[5] = Trypanosoma cruzi growth suppression in host cells – NIH3T3 host cells, beta-gal luminescence, confirmation (AID 2044); type: functional, cell-based;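 also: intracellular parasites grown in NIH/3T3 mouse fibroblasts as host cells; luminescent beta-galactosidase reporter signal from transgenic T. cruzi replicating inside host cells; inhibitors lower the luminescence signal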
[6] = target: T2, Calpain-2 catalytic subunit (Sus scrofa, UniProt P43367); assay: m-calpain protease blockers, concentration series – biochemical, fluorogenic peptide substrate, dose response (AID 1420); type: functional
T2 sequence (P43367 whole entry): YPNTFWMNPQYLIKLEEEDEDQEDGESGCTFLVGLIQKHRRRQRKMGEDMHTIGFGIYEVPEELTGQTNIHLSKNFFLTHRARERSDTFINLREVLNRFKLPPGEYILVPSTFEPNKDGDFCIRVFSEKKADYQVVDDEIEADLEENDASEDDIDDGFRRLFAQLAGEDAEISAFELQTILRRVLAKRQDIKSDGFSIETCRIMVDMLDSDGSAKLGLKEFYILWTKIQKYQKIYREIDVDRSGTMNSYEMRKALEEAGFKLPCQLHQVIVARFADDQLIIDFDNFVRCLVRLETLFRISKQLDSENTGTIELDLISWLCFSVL

[7] = NIH3T3 cell viability loss – ATP luminescence, mouse fibroblasts, counter-screen, dose response (AID 2010); type: functional, cell-based;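 also: cells exposed to compound for about 90 hours before reading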
[8] = Luminescence Cell-Based Dose Retest to Confirm Inhibitors of Cancer Stem Cells. [Related pubchem assays (depositor defined):AID2717, AID2721]; type: functional; settings: Homo sapiens
[9] = target: T3, Ubiquitin-conjugating enzyme E2 N (Homo sapiens, UniProt P61088); type: functional;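 also: Dose-response confirmation in a TR-FRET assay detecting UBC13-driven polyubiquitin chain formation, inhibition measured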
T3 sequence (P61088 whole entry): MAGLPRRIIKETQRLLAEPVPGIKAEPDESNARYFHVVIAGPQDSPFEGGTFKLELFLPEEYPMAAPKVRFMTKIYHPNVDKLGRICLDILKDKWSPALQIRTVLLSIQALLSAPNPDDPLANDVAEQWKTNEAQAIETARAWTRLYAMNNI

cells [10] = type: functional
cells [11] = type: functional, cell-based
cells [12] = type: functional, cell-based; remark: listed apart in the source
[13] = target: T4, Replicative DNA helicase DnaB (Mycobacterium tuberculosis, UniProt P9WMR3); assay: DnaB intein splicing inhibitors, dose response, biochemical, cell-free fluorescence (AID 449749); type: functional
T4 sequence (P9WMR3 whole entry): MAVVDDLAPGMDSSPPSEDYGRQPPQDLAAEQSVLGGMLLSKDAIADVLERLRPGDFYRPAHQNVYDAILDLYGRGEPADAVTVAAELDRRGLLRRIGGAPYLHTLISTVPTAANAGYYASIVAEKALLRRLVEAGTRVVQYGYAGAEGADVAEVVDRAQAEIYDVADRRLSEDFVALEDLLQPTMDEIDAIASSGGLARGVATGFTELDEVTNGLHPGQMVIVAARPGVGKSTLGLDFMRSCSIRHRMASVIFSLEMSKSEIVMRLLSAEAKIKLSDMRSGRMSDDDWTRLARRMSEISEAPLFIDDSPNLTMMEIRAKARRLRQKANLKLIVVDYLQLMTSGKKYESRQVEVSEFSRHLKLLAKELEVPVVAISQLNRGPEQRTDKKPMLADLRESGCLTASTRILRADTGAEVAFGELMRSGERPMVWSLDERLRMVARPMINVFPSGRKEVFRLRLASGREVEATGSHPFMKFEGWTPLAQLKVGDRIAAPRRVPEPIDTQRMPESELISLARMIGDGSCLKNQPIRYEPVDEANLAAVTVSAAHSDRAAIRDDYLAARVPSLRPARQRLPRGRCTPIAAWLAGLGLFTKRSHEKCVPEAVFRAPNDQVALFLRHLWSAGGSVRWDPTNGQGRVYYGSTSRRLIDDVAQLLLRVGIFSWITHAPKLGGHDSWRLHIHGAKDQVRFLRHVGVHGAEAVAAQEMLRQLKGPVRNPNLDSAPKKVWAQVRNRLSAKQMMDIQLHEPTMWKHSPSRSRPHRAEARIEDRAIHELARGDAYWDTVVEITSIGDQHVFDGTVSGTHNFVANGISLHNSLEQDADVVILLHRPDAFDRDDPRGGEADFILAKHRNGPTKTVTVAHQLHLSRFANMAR

Protein RecA = target: T5, Protein RecA (Mycobacterium tuberculosis, UniProt P9WHJ3); assay: Fluorescence Cell-Free Homogeneous Dose Retest to Identify Inhibitors of RecA-Intein Splicing Activity. [Related pubchem assays (depositor defined):AID2097, AID2223, AID489010, AID492950]; type: functional
T5 sequence (P9WHJ3 whole entry): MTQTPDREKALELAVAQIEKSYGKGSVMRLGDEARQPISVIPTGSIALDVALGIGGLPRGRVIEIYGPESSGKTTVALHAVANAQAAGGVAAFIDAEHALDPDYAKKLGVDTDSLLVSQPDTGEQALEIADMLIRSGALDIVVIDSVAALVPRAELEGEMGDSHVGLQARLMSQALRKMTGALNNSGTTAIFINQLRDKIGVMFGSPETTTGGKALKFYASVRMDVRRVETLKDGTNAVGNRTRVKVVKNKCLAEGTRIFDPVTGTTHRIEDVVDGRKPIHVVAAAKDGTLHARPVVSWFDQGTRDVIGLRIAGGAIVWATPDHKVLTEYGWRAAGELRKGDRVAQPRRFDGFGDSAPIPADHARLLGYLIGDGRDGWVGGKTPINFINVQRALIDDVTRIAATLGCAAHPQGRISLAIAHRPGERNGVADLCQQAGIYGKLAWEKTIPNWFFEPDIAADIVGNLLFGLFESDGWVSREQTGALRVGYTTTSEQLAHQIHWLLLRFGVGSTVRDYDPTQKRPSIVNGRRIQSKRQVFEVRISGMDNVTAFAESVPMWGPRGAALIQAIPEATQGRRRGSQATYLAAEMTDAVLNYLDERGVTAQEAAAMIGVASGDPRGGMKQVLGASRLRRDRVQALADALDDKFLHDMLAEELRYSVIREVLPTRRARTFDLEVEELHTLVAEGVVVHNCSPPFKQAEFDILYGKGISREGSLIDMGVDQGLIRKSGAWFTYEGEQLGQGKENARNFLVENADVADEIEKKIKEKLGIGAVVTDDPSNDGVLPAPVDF

[14] = target: T6, Endoribonuclease toxin MazF (Escherichia coli K-12, UniProt P0AE70); assay: activation of MazEF endoribonuclease cleavage – biochemical, fluorescence, single-stranded RNA substrate, uHTS hits, dose response (AID 588481); type: functional
T6 sequence (P0AE70 whole entry): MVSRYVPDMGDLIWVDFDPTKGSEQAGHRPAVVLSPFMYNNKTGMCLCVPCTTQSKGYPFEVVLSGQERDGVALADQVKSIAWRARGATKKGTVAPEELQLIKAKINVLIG

[15] = target: T6, Endoribonuclease toxin MazF; assay: substrate-only fluorescence increase artefacts – biochemical, single-stranded RNase substrate, counter-screen for MazEF activator project, dose response (AID 588502); type: functional
[16] = reduction of Shn3 3'UTR-driven luciferase in osteoblasts – cell-based, Clone20 osteoblasts, firefly luciferase, cherry-picked, dose response (AID 624132); type: functional;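 also: firefly luciferase luminescence from reporter carrying the Shn3 3'UTR in osteoblasts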
[17] = non-specific 3'UTR reporter inhibition in Clone20-Shn3RL – cell-based, Renilla luciferase, cherry-picked, counter-screen for Shn3 inhibitor project, dose response (AID 624133); type: functional

Cc1ccc2[nH]c(=O)c(=NNc3ccccc3)cnc2c1
CC50 [1]: > 40 µM (active)

OC(CN1C2=NCCN2c2ccccc21)c1ccc2c(c1)OCO2 (configuration not stated)
IC50 [2]: > 47.1 µM (inactive) | EC50 [3]: > 53 µM (inactive)

CCCCN(CC)S(=O)(=O)c1ccc(C(=O)N(CCCN(C)C)c2nc3cc(C)cc(C)c3s2)cc1
CC50 [4]: 14.9 µM (active) | EC50 [5]: 0.227 µM (active) | IC50 [6]: 8.03 µM (not active) | EC50 [7]: 9.54 µM (active) | AC50 [8]: 6.96 µM (active) | IC50 [9]: > 20 µM (inactive)

CSc1ccc(C(=O)C2CCCN(Cc3cc4ccccc4[nH]3)C2)cc1 (configuration not stated)
IC50 (cells [10]): 13.2 µM (active)

Cc1ccc(NC(=O)CCn2cc(C(F)(F)F)ccc2=O)cc1
IC50 [2]: > 47.1 µM (inactive) | EC50 [3]: > 53 µM (inactive)

COc1ccc(-c2noc(CCC(=O)NCC3CCN(Cc4cccc(C)c4)CC3)n2)cc1
IC50 [9]: > 20 µM (inactive)

Cn1c(SCC(=O)c2ccccc2)nnc1-c1ccco1
EC50 (cells [11]): > 350 µM (not active) | EC50 (cells [12]): 57.5 µM (active)

CCOc1ccc(S(=O)(=O)NCc2cccnc2)cc1C
AC50 [13]: > 380 µM (inactive) | EC50 (Protein RecA): > 380 µM (inactive)

N#Cc1ccc(COC(=O)CCc2c[nH]c3ccccc23)cc1
IC50 (cells [10]): 1.68 µM (active)

CC(C)COCC(CN(Cc1ccccc1)c1ccccc1)N1CCCC1 (configuration not stated)
IC50 [9]: > 20 µM (inactive)

COC(=O)CN1C(=O)COc2ccc(S(=O)(=O)NCc3ccc(Cl)cc3)cc21
IC50 [2]: > 47.1 µM (inactive) | EC50 [3]: > 53 µM (inactive)

CC1(C)CC2=Nc3nn(-c4ccccc4)c(O)c3C(c3ccc4c(c3)OCO4)C2=C(O)C1 (configuration not stated)
AC50 [13]: 66.1 µM (active) | EC50 (Protein RecA): 24 µM (active)

CC(=O)c1cccc(NC(=O)CN(C)S(=O)(=O)c2cccc3nsnc23)c1
EC50 (cells [11]): > 350 µM (not active) | EC50 (cells [12]): > 350 µM (not active)

CCN(CC)CCn1c(=O)n(-c2ccc(Cl)cc2)c(=O)c2c3c(sc21)CN(C)CC3
EC50 [14]: > 99 µM (inactive) | EC50 [15]: > 99 µM (inactive)

CCN(CC)CCN/C(C)=C1\C(=O)NC(=O)N(c2ccccc2OC)C1=O
IC50 [2]: > 47.1 µM (inactive) | EC50 [3]: > 53 µM (inactive)

COc1ccc(CCNC(=O)c2cccn2C)cc1
IC50 [2]: > 47.1 µM (inactive) | EC50 [3]: > 53 µM (inactive)

COc1ccc(/C=N/NS(=O)(=O)c2ccccc2)cc1OC(=O)c1ccc(C)cc1
IC50 [2]: > 47.1 µM (inactive) | EC50 [3]: > 53 µM (inactive)

CCCC(=O)NC(=S)Nc1ccc(N2CCN(C(=O)c3cccs3)CC2)cc1
AC50 [16]: 10.1 µM (active) | AC50 [17]: 10.7 µM (active)

Cc1ccc(S[C@@H](CCN2CC[C@H](C)CCC2=O)c2ccccc2)cc1
AC50 [13]: 5.34 µM (active) | EC50 (Protein RecA): 17.6 µM (active)

CC(C)Cn1nc2c3c(ccc2c1O)C(=O)c1ccccc1C3=O
CC50 [1]: 16.4 µM (active)

CN(C(=O)COC(=O)c1ccc(F)c(S(=O)(=O)N2CCOCC2)c1)C1CCS(=O)(=O)C1 (configuration not stated)
EC50 (cells [11]): > 350 µM (not active) | EC50 (cells [12]): > 350 µM (not active)

FC(F)(F)c1ccc2c(c1)NP(=S)(N1CCOCC1)c1nccn1-2 (configuration not stated)
EC50 (cells [11]): > 350 µM (not active) | EC50 (cells [12]): > 350 µM (not active)

Cc1ccc(OCCCCNC2CCCC(C)C2C)c(C)c1 (configuration not stated)
EC50 [5]: 0.778 µM (active) | CC50 [1]: > 40 µM (active) | EC50 [7]: > 60 µM (not active)

Cn1cccc1/C=C1\SC(=O)N(c2ccccc2)C1=O
EC50 [14]: > 99 µM (inactive) | EC50 [15]: 32 µM (inactive)

CCCn1c(=N)c(C(=O)NCc2ccc3c(c2)OCO3)cc2c(=O)n3cccc(C)c3nc21
EC50 [5]: 1.67 µM (active) | CC50 [1]: 33.9 µM (active) | EC50 [7]: > 30 µM (not active)

CCCOC(=O)NC1C(NC(=O)OCCC)N(C)C(=O)N1C (configuration not stated)
EC50 (cells [11]): > 350 µM (not active) | EC50 (cells [12]): > 350 µM (not active)

CCC(=O)n1nc(NCc2ccc(OC)c(OC)c2)nc1NCc1ccc(OC)c(OC)c1
EC50 (cells [11]): > 350 µM (not active) | EC50 (cells [12]): > 350 µM (not active)

CC(=O)N1CCN(S(=O)(=O)c2cccc(C(=O)NCc3ccc(F)cc3)c2)CC1
IC50 [2]: > 47.1 µM (inactive) | EC50 [3]: > 53 µM (inactive)

COc1ccccc1NC(=O)C1=C(C)Nc2nnnn2C1c1ccncc1 (configuration not stated)
AC50 [13]: 21.2 µM (inconclusive)
